Experimental data as given in PMC11005723, “Development of Complementary Photo‐arginine/lysine to Promote Discovery of Arg/Lys hPTMs Interactomes” (Advanced Science, 2024).
Where two headings read alike, the source gives them in different places. Non-standard residues stand in square brackets, D forms with d. No end group written: not given here. *: point of attachment. Biotin = O=C1N[C@H]2[C@H](CS[C@H]2CCCCC(=O)*)N1; R(dz) = photo-arginine

Test system: HEK293T nuclear lysates
Assay: SILAC‐based pull‐down proteomics H4K5acK8ac/H4K5 (probes 8/5)
Format: binding, human

## probe 8: H4K5acK8ac peptide probe with photo‐arginine R(dz) and K(biotin) (SG[R(dz)]GK(Ac)GGK(Ac)GLGKGGK(Biotin))
  A6 log2 (H4K5ac8ac/H4K5): 0.04066
  B6 log2 (H4K5ac8ac/H4K5): 0.03161
365 nm UV 30 min, streptavidin enrichment, n = 2
  proteins enriched (SILAC proteomics H4K5acK8ac/H4K5): YEATS4 was enriched
Protein ACO2 (Q99798), replicate A6
  A6 log2 (H4K5ac8ac/H4K5): 0.4428
Protein ACO2 (Q99798), replicate B6
  B6 log2 (H4K5ac8ac/H4K5): 0.07379
Protein ACOT7 (O00154), replicate A6
  A6 log2 (H4K5ac8ac/H4K5): 0.4709
Protein ACOT7 (O00154), replicate B6
  B6 log2 (H4K5ac8ac/H4K5): -0.02566
Protein AGPS (O00116), replicate A6
  A6 log2 (H4K5ac8ac/H4K5): -0.04144
Protein AGPS (O00116), replicate B6
  B6 log2 (H4K5ac8ac/H4K5): 0.004198
Protein ALDH18A1 (P54886), replicate A6
  A6 log2 (H4K5ac8ac/H4K5): 0.1932
Protein ALDH18A1 (P54886), replicate B6
  B6 log2 (H4K5ac8ac/H4K5): 0.05067
Protein BUB3 (J3QT28), replicate A6
  A6 log2 (H4K5ac8ac/H4K5): 0.07833
Protein BUB3 (J3QT28), replicate B6
  B6 log2 (H4K5ac8ac/H4K5): 0.05185
Protein C11orf84 (Q9BUA3), replicate A6
  A6 log2 (H4K5ac8ac/H4K5): -0.4738
Protein C11orf84 (Q9BUA3), replicate B6
  B6 log2 (H4K5ac8ac/H4K5): -0.01921
Protein CCAR1 (Q8IX12), replicate A6
  A6 log2 (H4K5ac8ac/H4K5): -0.2516
Protein CCAR1 (Q8IX12), replicate B6
  B6 log2 (H4K5ac8ac/H4K5): -0.018
Protein CCT2 (P78371), replicate A6
  A6 log2 (H4K5ac8ac/H4K5): 0.3921
Protein CCT2 (P78371), replicate B6
  B6 log2 (H4K5ac8ac/H4K5): 0.08005
Protein CCT3 (B4DUR8), replicate A6
  A6 log2 (H4K5ac8ac/H4K5): 0.2904
Protein CCT3 (B4DUR8), replicate B6
  B6 log2 (H4K5ac8ac/H4K5): 0.07923
Protein CHAF1A (Q13111), replicate A6
  A6 log2 (H4K5ac8ac/H4K5): -0.1099
Protein CHAF1A (Q13111), replicate B6
  B6 log2 (H4K5ac8ac/H4K5): 0.08018
Protein CHD1L (A0A494C1F7), replicate A6
  A6 log2 (H4K5ac8ac/H4K5): 0.1451
Protein CHD1L (A0A494C1F7), replicate B6
  B6 log2 (H4K5ac8ac/H4K5): 0.0657
Protein CORO1B (Q9BR76), replicate A6
  A6 log2 (H4K5ac8ac/H4K5): 0.2889
Protein CORO1B (Q9BR76), replicate B6
  B6 log2 (H4K5ac8ac/H4K5): 0.06919
Protein CPOX (P36551), replicate A6
  A6 log2 (H4K5ac8ac/H4K5): 0.124
Protein CPOX (P36551), replicate B6
  B6 log2 (H4K5ac8ac/H4K5): 0.04785
Protein DNAJA2 (O60884), replicate A6
  A6 log2 (H4K5ac8ac/H4K5): 0.3475
Protein DNAJA2 (O60884), replicate B6
  B6 log2 (H4K5ac8ac/H4K5): -0.007896
Protein DYNC1LI1 (Q9Y6G9), replicate A6
  A6 log2 (H4K5ac8ac/H4K5): 0.04173
Protein DYNC1LI1 (Q9Y6G9), replicate B6
  B6 log2 (H4K5ac8ac/H4K5): -0.03653
Protein DYNC1LI2 (O43237), replicate A6
  A6 log2 (H4K5ac8ac/H4K5): -0.06254
Protein DYNC1LI2 (O43237), replicate B6
  B6 log2 (H4K5ac8ac/H4K5): -0.0172
Protein EEF1A2 (Q05639), replicate A6
  A6 log2 (H4K5ac8ac/H4K5): 0.1545
Protein EEF1A2 (Q05639), replicate B6
  B6 log2 (H4K5ac8ac/H4K5): 0.03088
Protein EIF3G (O75821), replicate A6
  A6 log2 (H4K5ac8ac/H4K5): -0.1739
Protein EIF3G (O75821), replicate B6
  B6 log2 (H4K5ac8ac/H4K5): 0.07863
Protein EML4 (Q9HC35), replicate A6
  A6 log2 (H4K5ac8ac/H4K5): -0.3051
Protein EML4 (Q9HC35), replicate B6
  B6 log2 (H4K5ac8ac/H4K5): 0.01001
Protein EXOSC10 (Q01780), replicate A6
  A6 log2 (H4K5ac8ac/H4K5): 0.04791
Protein EXOSC10 (Q01780), replicate B6
  B6 log2 (H4K5ac8ac/H4K5): -0.03432
Protein FEN1 (P39748), replicate A6
  A6 log2 (H4K5ac8ac/H4K5): 0.2678
Protein FEN1 (P39748), replicate B6
  B6 log2 (H4K5ac8ac/H4K5): 0.04436
Protein FKBP4 (Q02790), replicate A6
  A6 log2 (H4K5ac8ac/H4K5): -0.547
Protein FKBP4 (Q02790), replicate B6
  B6 log2 (H4K5ac8ac/H4K5): -0.03149
Protein FTO (A0A1B0GTY1), replicate A6
  A6 log2 (H4K5ac8ac/H4K5): 0.04491
Protein FTO (A0A1B0GTY1), replicate B6
  B6 log2 (H4K5ac8ac/H4K5): 0.03394
Protein FUBP1 (Q96AE4), replicate A6
  A6 log2 (H4K5ac8ac/H4K5): -0.499
Protein FUBP1 (Q96AE4), replicate B6
  B6 log2 (H4K5ac8ac/H4K5): 0.06296
Protein GATAD2B (A0A0U1RRM1), replicate A6
  A6 log2 (H4K5ac8ac/H4K5): 0.09181
Protein GATAD2B (A0A0U1RRM1), replicate B6
  B6 log2 (H4K5ac8ac/H4K5): -0.04991
Protein GMPS (P49915), replicate A6
  A6 log2 (H4K5ac8ac/H4K5): 0.3016
Protein GMPS (P49915), replicate B6
  B6 log2 (H4K5ac8ac/H4K5): -0.02008
Protein GPKOW (Q92917), replicate A6
  A6 log2 (H4K5ac8ac/H4K5): -0.007755
Protein GPKOW (Q92917), replicate B6
  B6 log2 (H4K5ac8ac/H4K5): 0.07952
Protein GTF2I (P78347), replicate A6
  A6 log2 (H4K5ac8ac/H4K5): 0.3176
Protein GTF2I (P78347), replicate B6
  B6 log2 (H4K5ac8ac/H4K5): -0.03285
Protein HADHA (P40939), replicate A6
  A6 log2 (H4K5ac8ac/H4K5): 0.03109
Protein HADHA (P40939), replicate B6
  B6 log2 (H4K5ac8ac/H4K5): 0.08176
Protein HNRNPA2B1 (P22626), replicate A6
  A6 log2 (H4K5ac8ac/H4K5): -0.08912
Protein HNRNPA2B1 (P22626), replicate B6
  B6 log2 (H4K5ac8ac/H4K5): 0.03979
Protein HNRNPAB (D6R9P3), replicate A6
  A6 log2 (H4K5ac8ac/H4K5): -0.001487
Protein HNRNPAB (D6R9P3), replicate B6
  B6 log2 (H4K5ac8ac/H4K5): 0.001897
Protein HNRNPD (D6RAF8), replicate A6
  A6 log2 (H4K5ac8ac/H4K5): -0.05205
Protein HNRNPD (D6RAF8), replicate B6
  B6 log2 (H4K5ac8ac/H4K5): 0.06546
Protein HNRNPM (A0A087X0X3), replicate A6
  A6 log2 (H4K5ac8ac/H4K5): 0.04259
Protein HNRNPM (A0A087X0X3), replicate B6
  B6 log2 (H4K5ac8ac/H4K5): 0.03533
Protein HNRNPUL1 (A0A0A0MRA5), replicate A6
  A6 log2 (H4K5ac8ac/H4K5): 0.04263
Protein HNRNPUL1 (A0A0A0MRA5), replicate B6
  B6 log2 (H4K5ac8ac/H4K5): 0.07976
Protein HSP90AB1 (P08238), replicate A6
  A6 log2 (H4K5ac8ac/H4K5): 0.1705
Protein HSP90AB1 (P08238), replicate B6
  B6 log2 (H4K5ac8ac/H4K5): -0.003539
Protein ILF3 (Q12906), replicate A6
  A6 log2 (H4K5ac8ac/H4K5): -0.01185
Protein ILF3 (Q12906), replicate B6
  B6 log2 (H4K5ac8ac/H4K5): 0.0307
Protein IRS4 (O14654), replicate A6
  A6 log2 (H4K5ac8ac/H4K5): 0.9009
Protein IRS4 (O14654), replicate B6
  B6 log2 (H4K5ac8ac/H4K5): 0.04996
Protein KHDRBS1 (Q07666), replicate A6
  A6 log2 (H4K5ac8ac/H4K5): -0.03568
Protein KHDRBS1 (Q07666), replicate B6
  B6 log2 (H4K5ac8ac/H4K5): 0.03173
Protein KIF23 (A0A2U3TZL8), replicate A6
  A6 log2 (H4K5ac8ac/H4K5): -0.125
Protein KIF23 (A0A2U3TZL8), replicate B6
  B6 log2 (H4K5ac8ac/H4K5): 0
Protein LARS (Q9P2J5), replicate A6
  A6 log2 (H4K5ac8ac/H4K5): 0.1335
Protein LARS (Q9P2J5), replicate B6
  B6 log2 (H4K5ac8ac/H4K5): 0.07151
Protein LEMD3 (Q9Y2U8), replicate A6
  A6 log2 (H4K5ac8ac/H4K5): 0.3015
Protein LEMD3 (Q9Y2U8), replicate B6
  B6 log2 (H4K5ac8ac/H4K5): -0.02986
Protein MAZ (I3L2Z5), replicate A6
  A6 log2 (H4K5ac8ac/H4K5): 0.4619
Protein MAZ (I3L2Z5), replicate B6
  B6 log2 (H4K5ac8ac/H4K5): 0.02009
Protein MCM2 (P49736), replicate A6
  A6 log2 (H4K5ac8ac/H4K5): -0.3105
Protein MCM2 (P49736), replicate B6
  B6 log2 (H4K5ac8ac/H4K5): 0.01892
Protein MCM4 (E5RG31), replicate A6
  A6 log2 (H4K5ac8ac/H4K5): -0.08812
Protein MCM4 (E5RG31), replicate B6
  B6 log2 (H4K5ac8ac/H4K5): 0.02676
Protein MCM5 (P33992), replicate A6
  A6 log2 (H4K5ac8ac/H4K5): 0.07464
Protein MCM5 (P33992), replicate B6
  B6 log2 (H4K5ac8ac/H4K5): 0.03074
Protein MCM6 (Q14566), replicate A6
  A6 log2 (H4K5ac8ac/H4K5): 0.0904
Protein MCM6 (Q14566), replicate B6
  B6 log2 (H4K5ac8ac/H4K5): 0.06523
Protein MLL2 (O14686), replicate A6
  A6 log2 (H4K5ac8ac/H4K5): 0.2969
Protein MLL2 (O14686), replicate B6
  B6 log2 (H4K5ac8ac/H4K5): 0.009441
Protein MRPL37 (Q9BZE1), replicate A6
  A6 log2 (H4K5ac8ac/H4K5): 0.1893
Protein MRPL37 (Q9BZE1), replicate B6
  B6 log2 (H4K5ac8ac/H4K5): -0.03363
Protein MYH9 (P35579), replicate A6
  A6 log2 (H4K5ac8ac/H4K5): 0.0533
